One test deals with HBV viral load production from HepAD38 cells. Put plainly: Viral production from HepAD38 cells: viral load in supernatant by qPCR of the HBV core sequence. The test is classed as cell-based. The following applies: 5 days incubation, qPCR of supernatant HBV DNA vs DMSO control, read-out: viral load lowering EC50 (Activity). Put shortly:
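Viral load was measured by qPCR of the HBV core region in supernatant, quantified against DNA standards and compared with DMSO wells. Cells (50,000/well, tetracycline withdrawn, 2% FBS) received compound from 10 μM final for 5 days; EC50 from four-parameter nonlinear regression.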
(In general: Real-time PCR tracks product formation cycle by cycle.)
As to `Cc1cccc(CNC(=O)C2CC(C(=O)Nc3ccc(F)c(Cl)c3)N(C)S(=O)(=O)N2)n1` (single isomer, unassigned; isomer-b) [Compound 716-ISOMER-B, N3-(3-chloro-4-fluoro-phenyl)-2-methyl-N5-[(6-methyl-2-pyridyl)methyl]-1,1-dioxo-1,2,6-thiadiazinane-3,5-dicarboxamde], the EC50 (usually the midpoint of the concentration-response curve) lay within 100 to 10000 nM.

The test is the same for the next values; noted with them: Hepatitis B virus, HePAD38, 120 h, 5 days incubation, qPCR of supernatant HBV DNA vs DMSO control, read-out: viral load lowering EC50 (Activity).
On to `CN1C(C(=O)Nc2ccc(F)c(Cl)c2)CC(C(=O)NCc2ccn(-c3ccccc3)n2)NS1(=O)=O` (single isomer, unassigned) [Compound 991-ISOMER-A, N3-(3-chloro-4-fluoro-phenyl)-2-methyl-1,1-dioxo-N5-[(1-phenylpyrazol-3-yl)methyl]-1,2,6-thiadiazinane-3,5-dicarboxamide], for which the EC50 fell in the range of 100 to 10000 nM.

In the case of `COc1ccc(-c2ncc(CNC(=O)C3CC(C(=O)Nc4ccc(F)c(Cl)c4)N(C)S(=O)(=O)N3)s2)cc1` (stereo not drawn) [Compound 932], the EC50 is under 50 nM.

`CN1C(C(=O)Nc2ccc(F)c(Cl)c2)CC(C(=O)NC2CCN(C(=O)C3CC3)CC2)NS1(=O)=O` (stereo not drawn) [Compound 854]: the 50% effective concentration (EC50) was under 50 nM.

On to `CN(C)CCCCc1cnn(-c2ncc(CNC(=O)C3CC(C(=O)Nc4ccc(F)c(Cl)c4)N(C)S(=O)(=O)N3)s2)c1` (single isomer, unassigned) [1197-ISOMER-A, N3-(3-chloro-4-fluoro-phenyl)-N5-[[2-[4-[4-(dimethylamino)butyl]pyrazol-1-yl]thiazol-5-yl]methyl]-2-methyl-1,1-dioxo-1,2,6-thiadiazinane-3,5-dicarboxamide], for which the EC50 lay within 100 to 10000 nM.

Turning to `COc1ccc2nc(CNC(=O)C3CC(C(=O)Nc4ccc(F)c(Cl)c4)N(C)S(=O)(=O)N3)sc2c1` (stereo not drawn) [Compound 1011], the EC50 was under 50 nM.

For `CN1C(C(=O)Nc2ccc(F)c(Cl)c2)CC(C(=O)NCCC2CCCO2)NS1(=O)=O` (stereo not drawn) [Compound 1161], the EC50 was 100 to 10000 nM.

For the compound `CN1C(C(=O)Nc2ccc(F)c(Cl)c2)CC(C(=O)NCc2cnc(-n3cccn3)s2)NS1(=O)=O` (stereo not drawn) [Compound 1157], the EC50 was in the range of 50 to 100 nM.

As to `CN1C(C(=O)Nc2ccc(F)c(Cl)c2)CC(C(=O)Nc2ccc3cccnc3c2)NS1(=O)=O` (stereo not drawn) [Compound 725], the EC50 fell in the range of 50 to 100 nM.

For `CN1C(C(=O)Nc2ccc(F)c(Cl)c2)CC(C(=O)NC2CCN(c3ccnc(-c4cn(C)cn4)c3)CC2)NS1(=O)=O` (stereo not drawn) [Compound 1052], the EC50 was under 50 nM.

For the compound `Cc1cn(-c2ccccc2F)nc1CNC(=O)C1CC(C(=O)Nc2ccc(F)c(Cl)c2)N(C)S(=O)(=O)N1` (single isomer, unassigned) [1142-ISOMER-A, N3-(3-chloro-4-fluoro-phenyl)-N5-[[1-(2-fluorophenyl)-4-methyl-pyrazol-3-yl]methyl]-2-methyl-1,1-dioxo-1,2,6-thiadiazinane-3,5-dicarboxamide], the EC50 is under 50 nM.

For the compound `CN1C(C(=O)Nc2ccc(F)c(Cl)c2)CC(C(=O)NC2CCCc3nc(-c4ccccc4Cl)sc32)NS1(=O)=O` (stereo not drawn) [Compound 1018], the half-maximal effective concentration (EC50) is under 50 nM.

For `CN1C(C(=O)Nc2ccc(F)c(Cl)c2)CC(C(=O)NCc2cccc(Cl)c2)NS1(=O)=O` (single isomer, unassigned) [Compound 730-ISOMER-A, N3-(3-chloro-4-fluoro-phenyl)-N5-[(3-chlorophenyl)methyl]-2-methyl-1,1-dioxo-1,2,6-thiadiazinane-3,5-dicarboxamide], the half-maximal effective concentration (EC50) is under 50 nM.

As to `CCc1nc(CNC(=O)C2CC(C(=O)Nc3ccc(F)c(Cl)c3)N(C)S(=O)(=O)N2)cs1` (single isomer, unassigned) [Compound 742-ISOMER-A, N3-(3-chloro-4-fluoro-phenyl)-N5-[(2-ethylthiazol-4-yl)methyl]-2-methyl-1,1-dioxo-1,2,6-thiadiazinane-3,5-dicarboxamide], the EC50 was 100 to 10000 nM.

With `Cc1cnc(CNC(=O)C2CC(C(=O)Nc3ccc(F)c(Cl)c3)N(C)S(=O)(=O)N2)s1` (single isomer, unassigned) [Compound 687-ISOMER-A, N3-(3-chloro-4-fluoro-phenyl)-2-methyl-N5-[(5-methylthiazol-2-yl)methyl]-1,1-dioxo-1,2,6-thiadiazinane-3,5-dicarboxamide], the EC50 was in the range of 100 to 10000 nM.

The record behind these values is US20230075856A1, “CYCLIC SULFAMIDE COMPOUNDS FOR TREATMENT OF HBV” (Assembly Biosciences, Inc., priority 2018, published 2023).
